Source: patent US9840478B2 (MERCK SHARP & DOHME CORP., priority 2013, dated 2017)
pIC50: −log10 of the molar value.

Each compound was assayed on HIV-1 (H9IIIB strain) (assay: Cell-based HIV infection assay using a reporter (Cell-Based), MT4-GFP cells). Settings: Human immunodeficiency virus 1, MT4-GFP cells infected with HIV-1 H9IIIB; 50% normal human serum; mean of at least two independent experiments; read-out: Cell-based IP.
How it was run: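 MT4-GFP cells (HIV LTR-driven GFP) infected 24 h with HIV-1 H9IIIB at low MOI, then washed and plated with compounds in RPMI + 50% normal human serum, 0.4% DMSO final. Green cells counted at 24 and 48 h; R0 = 48 h/24 h ratio, inhibition normalized to DMSO and triple-drug control; IC50 from 4-parameter fit.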

| Compound | pIC50 |
| --- | --- |
| COc1ccc(S(=O)(=O)N2[C@@H](CCc3c(F)cccc3NC(=O)[C@@H](N)C(c3cccc(F)c3)c3cccc(F)c3)CNC[C@@H]2C)cc1 [Example 156, 3-fluoro-N-[3-fluoro-2-(2-{(2S,6S)-1-[(4-methoxyphenyl)sulfonyl]-6-methylpiperazin-2-yl}ethyl)phenyl]-β-(3-fluorophenyl)-L-phenylalaninamide] | 7.85 |
| C[C@H]1CNC[C@H](CCc2c(F)cccc2NC(=O)[C@@H](N)[C@@H](c2ccc(F)cc2)C2CCOCC2)N1S(C)(=O)=O [Example 129, (βR)-4-fluoro-N-(3-fluoro-2-{2-[(2S,6S)-6-methyl-1-(methylsulfonyl)piperazin-2-yl]ethyl}phenyl)-β-(tetrahydro-2H-pyran-4-yl)-L-phenylalaninamide] | 6.68 |
| CC[C@@H]1CNC[C@H](CCc2c(F)cccc2NC(=O)[C@@H](NC(=O)OC)[C@@H](c2ccc(F)cc2)c2cc(F)cc(F)c2)N1S(C)(=O)=O [Example 270, (βS)-β-(3,5-difluorophenyl)-N-(2-{2-[(2S,6R)-6-ethyl-1-(methylsulfonyl)piperazin-2-yl]ethyl}-3-fluorophenyl)-4-fluoro-Nα-(methoxycarbonyl)-L-phenylalaninamide] | 7.62 |
| C[C@@H]1CNC[C@H](CCc2c(F)cncc2NC(=O)[C@@H](N)[C@@H](c2ccc(F)cc2)c2cc(F)cc(F)c2)N1S(=O)(=O)C1CC1 [Example 15, (βS)—N-(4-{2-[(2S,6R)-1-(cyclopropylsulfonyl)-6-methylpiperazin-2-yl]ethyl}-5-fluoropyridin-3-yl)-β-(3,5-difluorophenyl)-4-fluoro-L-phenylalaninamide] | 7.74 |
| C[C@H]1CNC[C@H](CCc2c(F)cccc2NC(=O)[C@@H](N)[C@@H](c2ccc(Cl)cc2)c2cncc(F)c2)N1S(=O)(=O)c1ccccc1 [Example 236, (βS)-4-chloro-N-(3-fluoro-2-{2-[(2S,6S)-6-methyl-1-(phenylsulfonyl)piperazin-2-yl]ethyl}phenyl)-β-(5-fluoropyridin-3-yl)-L-phenylalaninamide] | 8.09 |
| O=C(CC(c1ccc(F)cc1)c1ccc(F)cc1)Nc1cccc(F)c1CC[C@@H]1CNCCN1S(=O)(=O)c1ccccc1 [Example 61, 3,3-bis(4-fluorophenyl)-N-(3-fluoro-2-{2-[(2R)-1-(phenylsulfonyl)piperazin-2-yl]ethyl}phenyl)propanamide] | 5.92 |
| COC(=O)N[C@H](C(=O)Nc1cccc(F)c1CC[C@H]1CNC[C@H](C)N1S(C)(=O)=O)[C@@H](c1ccc(Cl)cc1)c1cc(F)cc(F)c1 [Example 200, (βS)-4-chloro-β-(3,5-difluorophenyl)-N-(3-fluoro-2-{2-[(2S,6S)-6-methyl-1-(methylsulfonyl)piperazin-2-yl]ethyl}phenyl)-Nα-(methoxycarbonyl)-L-phenylalaninamide] | 7.80 |
| O=C(C[C@@H](c1ccc(F)cc1)c1cc(F)cc(F)c1)Nc1cncc(F)c1CC[C@H]1CNCCN1S(=O)(=O)N1CCCC(F)C1 (stereo partly drawn) [Example 333, (3S)-3-(3,5-difluorophenyl)-N-[5-fluoro-4-(2-{(2S)-1-[(3-fluoropiperidin-1-yl)sulfonyl]piperazin-2-yl}ethyl)pyridin-3-yl]-3-(4-fluorophenyl)propanamide] | 7.19 |
| O=C(N[C@H](C(=O)Nc1cncc(F)c1CC[C@H]1CNCCN1S(=O)(=O)N1CCCC1)[C@@H](c1ccc(F)cc1)c1cc(F)cc(F)c1)C1CC1 [Example 86] | 7.89 |
| CC(C)[C@H](c1ccc(Cl)cc1)[C@H](N)C(=O)Nc1cncc(F)c1CC[C@H]1CNC[C@H](C)N1S(=O)(=O)C1CC1 [Example 177, (βR)-4-chloro-N-(4-{2-[(2S,6S)-1-(cyclopropylsulfonyl)-6-methylpiperazin-2-yl]ethyl}-5-fluoropyridin-3-yl)-β-(1-methylethyl)-L-phenylalaninamide] | 7.02 |
| N[C@H](C(=O)Nc1cncc(F)c1CC[C@H]1CNCCN1S(=O)(=O)c1ccccc1)C1(c2ccc(Cl)cc2)CCOCC1 [Example 70, (2S)-2-amino-2-[4-(4-chlorophenyl)tetrahydro-2H-pyran-4-yl]-N-(5-fluoro-4-{2-[(2S)-1-(phenylsulfonyl)piperazin-2-yl]ethyl}pyridin-3-yl)ethanamide] | 7.57 |
| COc1ccccc1S(=O)(=O)N1[C@@H](CCc2c(F)cncc2NC(=O)[C@@H](N)[C@@H](c2ccc(F)cc2)c2cc(F)cc(F)c2)CNC[C@@H]1C [Example 235, (βS)-β-(3,5-difluorophenyl)-4-fluoro-N-[5-fluoro-4-(2-{(2S,6S)-1-[(2-methoxyphenyl)sulfonyl]-6-methylpiperazin-2-yl}ethyl)pyridin-3-yl]-L-phenylalaninamide] | 7.64 |
| COc1ccc(S(=O)(=O)N2[C@@H](CCc3c(F)cccc3NC(=O)[C@@H](N)[C@@H](c3ccc(Cl)cc3)C(C)C)CNC[C@@H]2C)cc1 [Example 124, (βR)-4-chloro-N-[3-fluoro-2-(2-{(2S,6S)-1-[(4-methoxyphenyl)sulfonyl]-6-methylpiperazin-2-yl}ethyl)phenyl]-β-(1-methylethyl)-L-phenylalaninamide] | 7.20 |
| COC(=O)N[C@H](C(=O)Nc1cccc(F)c1CC[C@H]1CNC[C@H](C)N1S(C)(=O)=O)C(c1cccc(F)c1)c1cccc(F)c1 [Example 171, 3-fluoro-N-(3-fluoro-2-{2-[(2S,6S)-6-methyl-1-(methylsulfonyl)piperazin-2-yl]ethyl}phenyl)-β-(3-fluorophenyl)-Nα-(methoxycarbonyl)-L-phenylalaninamide] | 7.59 |
| C[C@H]1CNC[C@H](CCc2c(F)cccc2NC(=O)[C@@H](N)[C@@H](c2ccc(F)cc2)C2CCOCC2)N1S(=O)(=O)C1CC1 [Example 114, (βR)-N-(2-{2-[(2S,6S)-1-(cyclopropylsulfonyl)-6-methylpiperazin-2-yl]ethyl}-3-fluorophenyl)-4-fluoro-β-(tetrahydro-2H-pyran-4-yl)-L-phenylalaninamide] | 7.00 |
| COC(=O)N[C@H](C(=O)Nc1cccc(F)c1CC[C@H]1CNC[C@@H](C)N1S(=O)(=O)c1ccccc1)[C@@H](c1ccc(F)c(F)c1)C1CCOCC1 [Example 293, (βR)-3,4-difluoro-N-(3-fluoro-2-{2-[(2S,6R)-6-methyl-1-(phenylsulfonyl)piperazin-2-yl]ethyl}phenyl)-Nα-(methoxycarbonyl)-β-(tetrahydro-2H-pyran-4-yl)-L-phenylalaninamide] | 8.06 |
| O=C(C[C@@H](c1ccc(F)cc1)c1cc(F)cc(F)c1)Nc1cncc(F)c1CC[C@H]1CNCCN1C(=O)c1ccc2c(c1)OC(F)(F)O2 [Example 345, (3S)-N-[4-(2-{(2S)-1-[(2,2-difluoro-1,3-benzodioxol-5-yl)carbonyl]piperazin-2-yl}ethyl)-5-fluoropyridin-3-yl]-3-(3,5-difluorophenyl)-3-(4-fluorophenyl)propanamide] | 5.80 |
| CC[C@H]1CNC[C@H](CCc2c(F)cccc2NC(=O)[C@@H](NC(=O)OC)[C@@H](c2ccc(F)cc2)c2cc(F)cc(F)c2)N1S(C)(=O)=O [Example 269, (βS)-β-(3,5-difluorophenyl)-N-(2-{2-[(2S,6S)-6-ethyl-1-(methylsulfonyl)piperazin-2-yl]ethyl}-3-fluorophenyl)-4-fluoro-Nα-(methoxycarbonyl)-L-phenylalaninamide] | 8.00 |

Same assay, conditions: MT4-GFP cells infected with HIV-1 H9IIIB; 50% normal human serum; mean of at least two independent experiments; read-out: Cell-based IP

| Compound | pIC50 |
| --- | --- |
| CN(CC1CC1)S(=O)(=O)N1CCNC[C@@H]1CCc1c(F)cccc1NC(=O)[C@@H](N)C(c1ccc(F)cc1)c1ccc(F)cc1 [Example 69] | 6.44 |
